Results from patent US20240174679A1, “HETEROAROYL AMIDES AS LRRK2 INHIBITORS, PHARMACEUTICAL COMPOSITIONS, AND USES THEREOF” (MERCK SHARP & DOHME LLC, priority 2021, published 2024).

Target: GST tagged truncated human mutant G2019S LRRK2 (Homo sapiens (Human), UniProt Q5S007, G2019S)
Experiment: LRRK2 Km ATP LanthaScreen Assay
Type: biochemical
Details: 134 μM ATP (Km ATP), LRRKtide substrate, negative log of mean IC50 (molar)
Description: Unless otherwise noted, all reactions are magnetically stirred. Unless otherwise noted, when diethyl ether is used in the experiments described below, it is Fisher ACS certified material and is stabilized with BHT. Unless otherwise noted, “concentrated” and/or “solvent removed under reduced pressure” means evaporating the solvent from a solution or mixture using a rotary evaporator or vacuum pump. Unless otherwise noted, flash chromatography is carried out on a Teledyne Isco (Lincoln, NE), Analogix (Burlington, WI), or Biotage (Stockholm, SWE) automated chromatography system using a commercially available cartridge as the column. Columns may be purchased from Teledyne Isco, Analogix, Biotage, Varian (Palo Alto, CA), or Supelco (Bellefonte, PA) and are usually filled with silica gel as the stationary phase. Reversed phase preparative HPLC conditions, where used, can be found at the end of each experimental section. Aqueous solutions were concentrated on a Genevac (Ipswich, ENG) or by freeze-drying/lyophilization. Unless otherwise noted, all LRRK2 pIC50 data presented in tables refers to the LRRK2 G2019S Km ATP LanthaScreen™ assay (Life Technologies Corp., Carlsbad, CA) that is described in the Biological Assay section.
Biological Assay: LRRK2 Km ATP LanthaScreen™ Assay
Compound potency against LRRK2 kinase activity was determined using LanthaScreen™ technology from Life Technologies Corporation (Carlsbad, CA) using a GST20 tagged truncated human mutant G2019S LRRK2 in the presence of the fluorescein-labeled peptide substrate LRRKtide® (LRRK2 phosphorylated ezrin/radixin/moesin (ERM)), also from Life Technologies. The data presented for the Km ATP LanthaScreen™ Assay represents mean IC50 values based on several test results and may have reasonable deviations depending on the specific conditions and reagents used. Km is the Michaelis constant of an enzyme and is defined as the concentration of native substrate (ATP for a kinase) which permits the enzyme to achieve half Vmax (Vmax=rate of reaction when the enzyme is saturated with substrate). IC50 (half-maximal inhibitory concentration) represents the concentration of inhibitor required to inhibit LRRK2 kinase activity by 50%. Assays were performed in the presence of 134 μM ATP (Km ATP). Upon completion, the assay was stopped, and phosphorylated substrate detected with a terbium (Tb)-labeled anti-pERM antibody (cat. no. PV4898). The compound dose response was prepared by diluting a 10 mM stock of compound to a maximum concentration of 9.99 μM in 100% DMSO, followed by custom fold serial dilution in DMSO nine times. 20 nL of each dilution was spotted via a Labcyte Echo onto a 384-well black-sided plate (Corning 3575) followed by 15 μL of a 1.25 nM enzyme solution in 1× assay buffer (50 mM Tris pH 8.5, 10 mM MgCl2, 0.01% Brij-35, 1 mM EGTA, 2 mM dithiothreitol, 0.05 mM sodium orthovanadate). Following a 15-min incubation period at rt, the kinase reaction was started with the addition of 5 μL of 400 nM fluorescein-labeled LRRKtide® (LRRK2 phosphorylated ezrin/radixin/moesin (ERM)) peptide substrate and 134 μM ATP solution in 1× assay buffer. The reaction was allowed to progress at ambient temperature for 90 min. The reaction was then stopped by the addition of 20 μL of TR-FRET Dilution Buffer (Life Technologies, Carlsbad, CA) containing 2 nM Tb-labeled anti-phospho LRRKtide® (LRRK2 phosphorylated ezrin/radixin/moesin (ERM)) antibody and 10 mM EDTA (Life Technologies, Carlsbad, CA). After an incubation period of 1 h at rt, the plate was read on an EnVision® multimode plate reader (Perkin Elmer, Waltham, MA) with an excitation wavelength of 337 nm (Laser) and a reading emission at both 520 and 495 nm. Compound IC50 values were interpolated from nonlinear regression best-fits of the log of the final compound concentration, plotted as a function of the 520/495-nm emission ratio using activity base “Abase”). Abase uses a 4 parameter (4P) logistic fit based on the Levenberg-Marquardt algorithm. […]

Sequence of GST tagged truncated human mutant G2019S LRRK2 (Q5S007 970-2527 G2019S): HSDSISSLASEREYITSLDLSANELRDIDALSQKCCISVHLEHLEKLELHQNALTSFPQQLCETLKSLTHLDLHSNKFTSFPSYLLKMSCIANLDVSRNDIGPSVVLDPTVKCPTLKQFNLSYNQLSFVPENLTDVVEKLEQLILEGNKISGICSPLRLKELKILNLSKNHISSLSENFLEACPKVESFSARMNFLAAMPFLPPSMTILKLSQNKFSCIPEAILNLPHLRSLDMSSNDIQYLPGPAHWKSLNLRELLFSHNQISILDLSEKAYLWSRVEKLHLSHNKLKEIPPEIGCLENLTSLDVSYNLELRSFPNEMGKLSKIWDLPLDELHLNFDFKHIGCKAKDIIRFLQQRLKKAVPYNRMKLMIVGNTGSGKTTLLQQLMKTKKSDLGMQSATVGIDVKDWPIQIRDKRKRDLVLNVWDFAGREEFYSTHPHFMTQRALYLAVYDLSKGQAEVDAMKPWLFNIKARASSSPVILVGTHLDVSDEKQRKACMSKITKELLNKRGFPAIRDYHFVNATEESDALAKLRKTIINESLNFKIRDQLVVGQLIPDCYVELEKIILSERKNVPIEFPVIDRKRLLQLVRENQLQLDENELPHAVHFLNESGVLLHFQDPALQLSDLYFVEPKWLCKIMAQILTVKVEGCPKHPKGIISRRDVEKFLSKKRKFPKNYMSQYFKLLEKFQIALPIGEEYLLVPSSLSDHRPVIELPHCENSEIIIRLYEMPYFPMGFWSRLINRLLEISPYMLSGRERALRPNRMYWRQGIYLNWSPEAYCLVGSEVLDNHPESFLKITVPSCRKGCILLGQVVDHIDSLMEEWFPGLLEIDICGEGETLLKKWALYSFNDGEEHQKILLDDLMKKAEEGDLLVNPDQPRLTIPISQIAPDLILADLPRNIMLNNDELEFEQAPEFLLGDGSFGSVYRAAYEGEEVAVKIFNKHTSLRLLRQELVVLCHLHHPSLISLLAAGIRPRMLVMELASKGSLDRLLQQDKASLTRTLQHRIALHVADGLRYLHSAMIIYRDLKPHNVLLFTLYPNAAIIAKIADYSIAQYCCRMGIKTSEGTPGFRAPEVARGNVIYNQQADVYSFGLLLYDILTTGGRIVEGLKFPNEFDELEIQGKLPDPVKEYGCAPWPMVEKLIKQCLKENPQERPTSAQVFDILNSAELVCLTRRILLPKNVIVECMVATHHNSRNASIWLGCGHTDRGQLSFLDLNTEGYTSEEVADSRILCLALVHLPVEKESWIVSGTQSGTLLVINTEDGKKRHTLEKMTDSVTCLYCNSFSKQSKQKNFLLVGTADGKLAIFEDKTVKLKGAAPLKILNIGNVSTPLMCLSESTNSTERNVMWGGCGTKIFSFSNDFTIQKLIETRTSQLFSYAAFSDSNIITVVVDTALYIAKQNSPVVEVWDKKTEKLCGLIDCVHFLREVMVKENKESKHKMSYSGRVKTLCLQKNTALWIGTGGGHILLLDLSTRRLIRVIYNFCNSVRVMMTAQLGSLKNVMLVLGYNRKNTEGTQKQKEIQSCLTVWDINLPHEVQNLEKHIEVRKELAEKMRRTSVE

Row | Compound | LRRK2 pIC50
1 | O=C(Nc1cnn(CC2CCC2)c1)c1cccc(-c2cnsc2)n1 [Example 9-15, N-[1-(cyclobutylmethyl)-1H-pyrazol-4-yl]-6-isothiazol-4-ylpyridine-2-carboxamide] | 6.66
2 | CCn1cc(-c2nc(C(=O)Nc3cn(CC(F)(F)F)nc3OC)cs2)cn1 [Example 12-4, 2-(1-ethyl-1H-pyrazol-4-yl)-N-[3-methoxy-1-(2,2,2-trifluoroethyl)-1H-pyrazol-4-yl]-1,3-thiazole-4-carboxamide] | 6.57
3 | CC(C)Oc1nn(C)cc1NC(=O)c1csc(-c2cn[nH]c2)n1 [Example 1-16, N-[1-methyl-3-(1-methylethoxy)-1H-pyrazol-4-yl]-2-(1H-pyrazol-4-yl)-1,3-thiazole-4-carboxamide] | 7.43
4 | O=C(Nc1cnn(CC2CCC2)c1)c1cccc(-c2cnn(Cc3ccncc3)c2)n1 [Example 9-6, N-[1-(cyclobutylmethyl)-1H-pyrazol-4-yl]-6-[1-(pyridin-4-ylmethyl)-1H-pyrazol-4-yl]pyridine-2-carboxamide] | 6.18
5 | Cc1nn(C(F)F)cc1NC(=O)c1csc(-c2cn[nH]c2)n1 [Example 1-5, N-[1-(difluoromethyl)-3-methyl-1H-pyrazol-4-yl]-2-(1H-pyrazol-4-yl)-1,3-thiazole-4-carboxamide] | 7.08
6 | O=C(Nc1cnn(CC2CCC2)c1)c1cccc(-c2ccnnc2)n1 [Example 9-19, N-[1-(cyclobutylmethyl)-1H-pyrazol-4-yl]-6-pyridazin-4-ylpyridine-2-carboxamide] | 5.22
7 | Cn1nccc1-c1cccc(C(=O)Nc2cnn(CC3CCC3)c2)n1 [Example 9-20, N-[1-(cyclobutylmethyl)-1H-pyrazol-4-yl]-6-(1-methyl-1H-pyrazol-5-yl)pyridine-2-carboxamide] | 5.07
8 | O=C(Nc1cnn(C2CCC2)c1)c1ccn(-c2ccccc2)n1 [Example 4-7, N-(1-cyclobutyl-1H-pyrazol-4-yl)-1-phenyl-1H-pyrazole-3-carboxamide] | 5.56
9 | Cn1cc(NC(=O)c2csc(-c3cn[nH]c3)n2)c(OCC(F)F)n1 [Example 1-26, N-[3-(2,2-difluoroethoxy)-1-methyl-1H-pyrazol-4-yl]-2-(1H-pyrazol-4-yl)-1,3-thiazole-4-carboxamide] | 7.56
10 | Cn1cc(NC(=O)c2csc(-c3cn[nH]c3)n2)c(C(F)(F)F)n1 [Example 1-40, N-[1-methyl-3-(trifluoromethyl)-1H-pyrazol-4-yl]-2-(1H-pyrazol-4-yl)-1,3-thiazole-4-carboxamide] | 7.10
11 | COCCn1cc(NC(=O)c2csc(-c3cn[nH]c3)n2)cn1 [Example 7-22, N-[1-(2-methoxyethyl)-1H-pyrazol-4-yl]-2-(1H-pyrazol-4-yl)-1,3-thiazole-4-carboxamide] | 7.00
12 | O=C(Nc1cnn(C2CCC2)c1)c1cccc(-n2ccnc2)n1 [Example 4-17, N-(1-cyclobutyl-1H-pyrazol-4-yl)-6-(1H-imidazol-1-yl)picolinamide] | 5.91
13 | O=C(Nc1cnn(C2CCC2)c1)c1csc(-c2cnn(C(F)F)c2)n1 [Example 9-17, N-(1-cyclobutyl-1H-pyrazol-4-yl)-2-[1-(difluoromethyl)-1H-pyrazol-4-yl]-1,3-thiazole-4-carboxamide] | 7.50
14 | COc1cccc(C(=O)Nc2cnn(C3CCC3)c2)n1 [Example 4-10, N-(1-cyclobutyl-1H-pyrazol-4-yl)-6-methoxypyridine-2-carboxamide] | 5.35
15 | COc1nn(CC(F)(F)F)cc1NC(=O)c1csc(-c2cnn(C)c2)n1 [Example 12-6, N-[3-methoxy-1-(2,2,2-trifluoroethyl)-1H-pyrazol-4-yl]-2-(1-methyl-1H-pyrazol-4-yl)-1,3-thiazole-4-carboxamide] | 7.06
16 | Cn1cc(NC(=O)c2csc(-c3cn[nH]c3)n2)c(CO)n1 [Example 6-1, N-(3-(Hydroxymethyl)-1-methyl-1H-pyrazol-4-yl)-2-(1H-pyrazol-4-yl)thiazole-4-carboxamide] | 7.47
17 | O=C(Nc1cnn(C2CCC2)c1)c1cccc(N2CCCCC2)n1 [Example 4-18, N-(1-cyclobutyl-1H-pyrazol-4-yl)-6-(piperidin-1-yl)picolinamide] | 5.81
18 | O=C(Nc1cnn(C2CCC2)c1)c1csc(Nc2ccccc2)n1 [Example 4-14, N-(1-cyclobutyl-1H-pyrazol-4-yl)-2-(phenylamino)-1,3-thiazole-4-carboxamide] | 6.12
19 | Cn1cc(NC(=O)c2csc(-c3cn[nH]c3)n2)cn1 [Example 4-15, N-(1-methyl-1H-pyrazol-4-yl)-2-(1H-pyrazol-4-yl)thiazole-4-carboxamide] | 7.28
20 | Cn1cc(-c2cccc(C(=O)Nc3cnn(C4CCC4)c3)n2)cn1 [Example 9-1, N-(1-Cyclobutyl-1H-pyrazol-4-yl)-6-(1-methyl-1H-pyrazol-4-yl)picolinamide] | 7.27
21 | CCn1cc(NC(=O)c2csc(-c3cn[nH]c3)n2)c(C#N)n1 [Example 1-10, N-(3-cyano-1-ethyl-1H-pyrazol-4-yl)-2-(1H-pyrazol-4-yl)-1,3-thiazole-4-carboxamide] | 7.30
22 | O=C(Nc1cnn(-c2ccncc2)c1)c1coc(-c2cn[nH]c2)n1 [Example 1-21, 2-(1H-pyrazol-4-yl)-N-(1-pyridin-4-yl-1H-pyrazol-4-yl)-1,3-oxazole-4-carboxamide] | 7.18
23 | CN(C)C(=O)c1nn(C)cc1NC(=O)c1csc(-c2cn[nH]c2)n1 [Example 1-36, N-[3-(dimethylcarba-moyl)-1-methyl-1H-pyrazol-4-yl]-2-(1H-pyrazol-4-yl)-1,3-thiazole-4-carboxamide] | 7.25
24 | O=C(Nc1cnn(C2CCOCC2)c1)c1csc(-c2cn[nH]c2)n1 [Example 7-10, 2-(1H-pyrazol-4-yl)-N-[1-(tetrahydro-2H-pyran-4-yl)-1H-pyrazol-4-yl]-1,3-thiazole-4-carboxamide] | 7.37
25 | CC(C)n1cc(NC(=O)c2csc(-c3cn[nH]c3)n2)c(OCC(F)(F)F)n1 [Example 1-7, N-[1-(1-methylethyl)-3-(2,2,2-trifluoroethoxy)-1H-pyrazol-4-yl]-2-(1H-pyrazol-4-yl)-1,3-thiazole-4-carboxamide] | 7.17
26 | N[C@H]1CC[C@](F)(Cn2cc(NC(=O)c3csc(-c4cn[nH]c4)n3)cn2)CC1 [Example 7-35, N-{1-[(cis-4-amino-1-fluorocyclohexyl)methyl]-1H-pyrazol-4-yl}-2-(1H-pyrazol-4-yl)-1,3-thiazole-4-carboxamide] | 6.24
27 | COc1nn(CC2(C#N)CC2)cc1NC(=O)c1csc(-c2cn[nH]c2)n1 [Example 7-25, N-{1-[(1-cyanocyclopropyl)methyl]-3-methoxy-1H-pyrazol-4-yl}-2-(1H-pyrazol-4-yl)-1,3-thiazole-4-carboxamide] | 7.70
28 | O=C(Nc1cnn(C2CCC2)c1C1CC1)c1csc(-c2cn[nH]c2)n1 [Example 3-3, N-(1-cyclobutyl-5-cyclopropyl-1H-pyrazol-4-yl)-2-(1H-pyrazol-4-yl)-1,3-thiazole-4-carboxamide] | 7.16
29 | O=C(Nc1cnn(C2CCC2)c1)c1csc(-c2ccccc2)n1 [Example 4-9, N-(1-cyclobutyl-1H-pyrazol-4-yl)-2-phenyl-1,3-thiazole-4-carboxamide] | 6.70
